# Experimental data from EP0908457B1, “3-(1,2-benzisothiazol- and isoxazol-5-Y1)-2,4(1H,3H)-pyrimidinedione or thione and 3-(1,2-benzisothiazol- and isoxazol-5-y1)-4(3H)-pyrimidinone or thione herbicidal agents” (BASF AKTIENGESELLSCHAFT, priority 1997, dated 1999).
# Columns and labels:
# [1] = test system: Oryza sativa, (L.) Tebonnet; assay: Rice tolerance to post-transplant applications under flooded paddy conditions (Example 187), ORYSAT (Rice, Tebonnet); settings: for ORYSAT: herbicidal effect rating 0-9, three to four weeks after treatment; for herbicidal effect rating ORYSAT: meaning of each grade not given here
# [2] = test system: Cyperus serotinus, Rottb.; assay: Preemergence weed control under flooded paddy conditions, CYPSE (Flatsedge); assay type: in vivo; settings: for CYPSE: preemergence weeds, herbicidal effect rating 0-9, three to four weeks after treatment; for herbicidal effect rating, CYPSE / CYPSE herbicidal effect rating: preemergence; for herbicidal effect rating, CYPSE: meaning of each grade not given here
# [3] = test system: Echinochloa oryzoides (Ard.) Fritsch.; assay: Preemergence weed control under flooded paddy conditions, ECHORC (Watergrass (Calif.)); assay type: in vivo; settings: flooded paddy; for ECHORC: preemergence weeds, herbicidal effect rating 0-9, three to four weeks after treatment; for herbicidal effect rating, ECHORC / ECHORC herbicidal effect rating: preemergence; for herbicidal effect rating, ECHORC: meaning of each grade not given here
# [4] = test system: Sagittaria pygmaea, L.; assay: Preemergence weed control under flooded paddy conditions, SAGPY (Arrowhead (Pygmaea)); assay type: in vivo; settings: flooded paddy; for SAGPY: preemergence weeds, herbicidal effect rating 0-9, three to four weeks after treatment; for herbicidal effect rating, SAGPY / SAGPY herbicidal effect rating: preemergence; for herbicidal effect rating, SAGPY: meaning of each grade not given here
# [5] = test system: Monochoria vaginalis, Presl.; assay: Preemergence weed control under flooded paddy conditions, MOOVA (Monochoria); assay type: in vivo; settings: flooded paddy; for MOOVA: preemergence weeds, herbicidal effect rating 0-9, three to four weeks after treatment; for herbicidal effect rating, MOOVA / MOOVA herbicidal effect rating: preemergence; for herbicidal effect rating, MOOVA: meaning of each grade not given here
# [6] = test system: Cyperus iria; assay: Preemergence weed control under flooded paddy conditions, CYPIR (Rice Flatsedge); assay type: in vivo; settings: flooded paddy; for CYPIR: preemergence weeds, herbicidal effect rating 0-9, three to four weeks after treatment; for herbicidal effect rating, CYPIR / CYPIR herbicidal effect rating: preemergence; for herbicidal effect rating, CYPIR: meaning of each grade not given here
# [7] = Rate 0.0320 kg/ha, rated three to four weeks after treatment
# [8] = Rate 0.0620 kg/ha, rated three to four weeks after treatment
# [9] = Rate 0.1250 kg/ha, rated three to four weeks after treatment
# [10] = Rate 0.2500 kg/ha, rated three to four weeks after treatment
# [11] = Rate 0.0320 kg/ha, rated 3-4 weeks after treatment
# [12] = Rate 0.0620 kg/ha, rated 3-4 weeks after treatment
# [13] = Rate 0.1250 kg/ha, rated 3-4 weeks after treatment
# [14] = Rate 0.2500 kg/ha, rated 3-4 weeks after treatment
# [15] = Rate 0.5000 kg/ha, rated three to four weeks after treatment
compound,measurement,setting,value
"COC(=O)C(C)Oc1cc2c(cc1-c1nsc3ccc(-n4c(=O)cc(C(F)(F)F)n(C)c4=O)cc13)CCC2 (centres unmarked) [Example 435, Propionic acid, 2-{{6-{5-[3,6-dihydro-3-methyl-2,6-dioxo-4-(trifluoromethyl)-1(2H)-pyrimidinyl]-1,2-benzisothiazol-3-yl}-5-indanyl}oxy}-, methyl ester]",ORYSAT,[1]; 0.0320 kg/ha,2.0
same,ORYSAT,[1]; 0.0620 kg/ha,1.0
same,ORYSAT,[1]; 0.1250 kg/ha,2.0
same,ORYSAT,[1]; 0.2500 kg/ha,2.0
same,CYPSE,[2]; 0.0620 kg/ha,0.0
same,CYPSE,[2]; 0.1250 kg/ha,3.0
same,CYPSE,[2]; 0.2500 kg/ha,2.0
same,ECHORC,[3]; 0.0320 kg/ha,5.0
same,ECHORC,[3]; 0.0620 kg/ha,7.0
same,ECHORC,[3]; 0.1250 kg/ha,7.0
same,ECHORC,[3]; 0.2500 kg/ha,9.0
same,SAGPY,[4]; 0.0320 kg/ha,0.0
same,SAGPY,[4]; 0.0620 kg/ha,0.0
same,SAGPY,[4]; 0.1250 kg/ha,0.0
same,SAGPY,[4]; 0.2500 kg/ha,6.0
same,MOOVA,[5]; 0.0320 kg/ha,9.0
same,MOOVA,[5]; 0.0620 kg/ha,9.0
same,MOOVA,[5]; 0.1250 kg/ha,9.0
same,MOOVA,[5]; 0.2500 kg/ha,9.0
same,CYPIR,[6]; 0.0320 kg/ha,0.0
same,CYPIR,[6]; 0.0620 kg/ha,0.0
same,CYPIR,[6]; 0.1250 kg/ha,2.0
same,CYPIR,[6]; 0.2500 kg/ha,3.0
"CCCS(=O)(=O)NC(=O)C(C)Oc1ccc(C)cc1-c1nsc2ccc(-n3c(=O)cc(C(F)(F)F)n(C)c3=O)cc12 (centres unmarked) [Example 569, Propionamide, 2-{{2-{5-[3,6-dihydro-3-methyl-2,6-dioxo-4-(trifluoromethyl)-1(2H)-pyrimidinyl]-1,2-benzisothiazol-3-yl}-p-tolyl}oxy}-N-(propyl-sulfonyl)-]",herbicidal effect rating ORYSAT,[1]; [7],0.0
same,herbicidal effect rating ORYSAT,[1]; [8],0.0
same,herbicidal effect rating ORYSAT,[1]; [9],0.0
same,herbicidal effect rating ORYSAT,[1]; [10],1.0
same,"herbicidal effect rating, CYPSE",[2]; [7],0.0
same,"herbicidal effect rating, CYPSE",[2]; [8],0.0
same,"herbicidal effect rating, CYPSE",[2]; [9],0.0
same,"herbicidal effect rating, CYPSE",[2]; [10],0.0
same,"herbicidal effect rating, ECHORC",[3]; [7],2.0
same,"herbicidal effect rating, ECHORC",[3]; [8],4.0
same,"herbicidal effect rating, ECHORC",[3]; [9],5.0
same,"herbicidal effect rating, ECHORC",[3]; [10],5.0
same,"herbicidal effect rating, SAGPY",[4]; [7],0.0
same,"herbicidal effect rating, SAGPY",[4]; [8],0.0
same,"herbicidal effect rating, SAGPY",[4]; [9],0.0
same,"herbicidal effect rating, SAGPY",[4]; [10],9.0
same,"herbicidal effect rating, MOOVA",[5]; [7],4.0
same,"herbicidal effect rating, MOOVA",[5]; [8],6.0
same,"herbicidal effect rating, MOOVA",[5]; [9],6.0
same,"herbicidal effect rating, MOOVA",[5]; [10],6.0
same,"herbicidal effect rating, CYPIR",[6]; [7],0.0
same,"herbicidal effect rating, CYPIR",[6]; [8],0.0
same,"herbicidal effect rating, CYPIR",[6]; [9],0.0
same,"herbicidal effect rating, CYPIR",[6]; [10],0.0
"C=CCOCC(CC)(COCC=C)COC(=O)COc1ccc(C)cc1-c1nsc2ccc(-n3c(=O)cc(C(F)(F)F)n(C)c3=O)cc12 [Example 521, Acetic acid, {{2-{5-[3,6-dihydro-3-methyl-2,6-dioxo-4-(trifluoromethyl)-1(2H)-pyrimidinyl]-1,2-benzisothiazol-3-yl}-p-tolyl}oxy}-, 2,2-bis-[(allyloxy)methyl]butyl ester]",herbicidal effect rating ORYSAT,[1]; [11],0.0
same,herbicidal effect rating ORYSAT,[1]; [12],0.0
same,herbicidal effect rating ORYSAT,[1]; [13],0.0
same,herbicidal effect rating ORYSAT,[1]; [14],0.0
same,"herbicidal effect rating, CYPSE",[2]; [11],0.0
same,"herbicidal effect rating, CYPSE",[2]; [12],0.0
same,"herbicidal effect rating, CYPSE",[2]; [13],0.0
same,"herbicidal effect rating, CYPSE",[2]; [14],0.0
same,"herbicidal effect rating, ECHORC",[3]; [11],2.0
same,"herbicidal effect rating, ECHORC",[3]; [12],2.0
same,"herbicidal effect rating, ECHORC",[3]; [13],4.0
same,"herbicidal effect rating, ECHORC",[3]; [14],4.0
same,"herbicidal effect rating, SAGPY",[4]; [11],0.0
same,"herbicidal effect rating, SAGPY",[4]; [12],0.0
same,"herbicidal effect rating, SAGPY",[4]; [13],0.0
same,"herbicidal effect rating, SAGPY",[4]; [14],0.0
same,"herbicidal effect rating, MOOVA",[5]; [11],6.0
same,"herbicidal effect rating, MOOVA",[5]; [12],9.0
same,"herbicidal effect rating, MOOVA",[5]; [13],9.0
same,"herbicidal effect rating, MOOVA",[5]; [14],9.0
same,"herbicidal effect rating, CYPIR",[6]; [11],0.0
same,"herbicidal effect rating, CYPIR",[6]; [12],0.0
same,"herbicidal effect rating, CYPIR",[6]; [13],0.0
same,"herbicidal effect rating, CYPIR",[6]; [14],2.0
"CO/N=C/c1nsc2ccc(-n3c(=O)cc(C(F)(F)F)n(C)c3=O)cc12 [Example 277, 1,2-Benzisothiazole-3-carboxaldehyde, 5-[3,6-dihydro-3-methyl-2,6-dioxo-4-(trifluoromethyl)-1(2H)-pyrimidinyl]-, 3-(O-methyloxime), (E)-]",ORYSAT herbicidal effect rating,[1]; [7],5.0
same,ORYSAT herbicidal effect rating,[1]; [8],7.0
same,ORYSAT herbicidal effect rating,[1]; [9],7.0
same,ORYSAT herbicidal effect rating,[1]; [10],8.0
same,ORYSAT herbicidal effect rating,[1]; [15],9.0
same,CYPSE herbicidal effect rating,[2]; [7],2.0
same,CYPSE herbicidal effect rating,[2]; [8],9.0
same,CYPSE herbicidal effect rating,[2]; [9],9.0
same,CYPSE herbicidal effect rating,[2]; [10],9.0
same,CYPSE herbicidal effect rating,[2]; [15],9.0
same,ECHORC herbicidal effect rating,[3]; [7],7.0
same,ECHORC herbicidal effect rating,[3]; [8],8.6
same,ECHORC herbicidal effect rating,[3]; [9],9.0
same,ECHORC herbicidal effect rating,[3]; [10],9.0
same,ECHORC herbicidal effect rating,[3]; [15],9.0
same,SAGPY herbicidal effect rating,[4]; [7],6.0
same,SAGPY herbicidal effect rating,[4]; [8],8.0
same,SAGPY herbicidal effect rating,[4]; [9],9.0
same,SAGPY herbicidal effect rating,[4]; [10],9.0
same,SAGPY herbicidal effect rating,[4]; [15],9.0
same,MOOVA herbicidal effect rating,[5]; [7],9.0
same,MOOVA herbicidal effect rating,[5]; [8],9.0
same,MOOVA herbicidal effect rating,[5]; [9],9.0
same,MOOVA herbicidal effect rating,[5]; [10],9.0
same,MOOVA herbicidal effect rating,[5]; [15],9.0
same,CYPIR herbicidal effect rating,[6]; [7],9.0
same,CYPIR herbicidal effect rating,[6]; [8],9.0
same,CYPIR herbicidal effect rating,[6]; [9],9.0
same,CYPIR herbicidal effect rating,[6]; [10],9.0
same,CYPIR herbicidal effect rating,[6]; [15],9.0
